According to patent publication US7820624B2, “Peptide ligands” (ICH Productions Limited, priority 2003, dated 2010):
“Also recorded” adds a separate entry of the source.

Key:
[1] = system: human monocyte-derived immature dendritic cells; test: Whole cell flow cytometry (FACS) of phage clone binding; conditions: day 4 cells, several donors; versus phage clone with no insert
Method: 5×10^4 Dendritic cells and 2×10^11 of an individual purified phage clone were each blocked at 4° C. for 30 mins in 1 ml MBSA (2% Marvel, 5% BSA in PBS), with mixing on a turntable. The dendritic cells were spun down at 2000 rpm, a gentle centrifugation to pellet cells without lysing them, for 5 min at 4° C., and the pellet resuspended in the blocked phage solution. The mixture was held on ice for 30 min to allow the phage to bind, before spinning down the cells, removing the supernatant and washing the cells with 1 ml 1% BSA, 0.05% Tween20-PBS. The cells were spun again, the supernatant removed, and the cells fixed in 1 ml 1% paraformaldehyde for 30 min on ice. […] The cells were incubated with the antibody on ice for 30 min before spinning down, washing twice in 0.05% Tween20, 1% BSA PBS, resuspending in […] and measuring the percentage cells positive for FITC by FACS analysis.
Alternatively, 5×10^4 dendritic cells were mixed with 2×10^11 of individual phage clones as described for panning of the phage library. The mixture of phage and DC suspensions was kept on ice for 30 min before cells were centrifuged to remove the supernatant and washed with 1 ml 1% BSA, 0.05% Tween 20-PBS. The cells were again pelleted by centrifugation, then fixed for flow cytometry analysis by resuspending in 1 ml of 1% paraformaldehyde for 30 min on ice. […] The cells were incubated with the antibody on ice for 30 min then pelleted by centrifugation, washed twice in 0.05% Tween 20, 1% BSA PBS and resuspended in 200 μl PBS. The percentage of FITC-positive cells was determined by flow cytometry using a Epics XL flow cytometer (Beckman Coulter, High Wycombe, UK.).

[2] = system: human monocyte-derived immature dendritic cells; test: Titration of phage clone binding to human dendritic cells; conditions: for Phage harvested by cell lysis (pfu), human donor S / Phage harvested by cell lysis (pfu), human donor one / Phage harvested by cell lysis (pfu), human donor two: 2×10^11 phage on 5×10^4 cells, 1 hour on ice; for Extent of phage clone binding in titrations: all titrations, including mouse dendritic cells, versus phage with no insert
Method: Phage were recovered and titred from each round of selection as follows. 2×10^11 Blocked phage were added to 5×10^4 blocked monocyte-derived immature dendritic cells for 1 hour on ice before washing cells three times with 0.05% Tween20-PBS, eluting phage with TBS pH5.5, and lysing cells to harvest the phage remaining bound. The numbers of phage harvested by cell lysis were calculated as plaque forming units (pfu). […] Sequencing of the bound phage shown in FIG. 1 identified the peptides as APSNSTA [SEQ. ID. NO.:15], QLLTGAS [SEQ. ID. NO.:30], TARDYRL [SEQ. ID. NO.:31], FQSQYQK [SEQ. ID. NO.:26], PLMPSLS [SEQ. ID. NO.:24], FPRAPHH [SEQ. ID. NO.:32], MASISMK [SEQ. ID. NO.:27], DWWHTSA [SEQ. ID. NO.:28], SHVKLNS [SEQ. ID. NO.:29], and SPALKTV [SEQ. ID. NO.:16].
(§1) The dendritic cells were spun down at 2000 rpm, for 5 min at 4° C., and resuspended in the phage solution, allowing the phage to bind for 1 hour on ice with occasional mixing. The cells were then washed in PBS-Tween 20 (0.05%) three times before eluting phage with 166 μl TBS pH5.5. for 10 min on ice. The eluate was neutralised with […] Tris-HCl pH 8, the cells were spun down, and the supernatant removed to be stored as eluate. The cell pellet was resuspended in 200 μl of cell lysis buffer (30 mM Tris-HCl, 1 mM EDTA pH 8.0) for 1 hour on ice, with shaking. The cell debris was removed by spinning at 5000 rpm for 5 min and the supernatant recovered. The phage in the eluate and the cell lysate were titred by measuring plaque forming units (pfu) in E. coli ER2738 as described in the NEB C7C technical bulletin.
(§2) The titration of phage clone binding was carried out using human and mouse dendritic cells, with binding to plastic as a control. The human cells were obtained from donors as stated below.

mouse dendritic cells = test: Titration of phage clone binding to mouse dendritic cells; conditions: 2×10^11 phage
Method: as §1, §2

[3] = Titration of phage clone binding to blocked plastic (control)
Method: as §1, §2

[4] = system: human monocyte-derived immature dendritic cells; test: LID (lipid-peptide-DNA) transfection of immature dendritic cells, EGFP by FACS and 7AAD cell death; type: cell-based; design: Transfection efficiency, % EGFP positive cells: concentration or dose not given beside the values; conditions: for Transfection efficiency, % positive cells / Percentage of dendritic cells transfected: day 4 cells; for Percentage of dendritic cells transfected: LID with lipofectin (FIG. 4b)
Method: (§3) Lipopolyplex (LID) transfection complexes comprising lipid (L), peptide (in the form of a peptide derivative as described above) (I) and DNA (D) were prepared. The lipid component was Lipofectin or Lipofectamine 2000 (Invitrogen Ltd, Paisley, UK), the peptide component was a synthesized peptide A to F, 6 or 6J derivative, as described in Table 7 above, and the DNA was the plasmid pEGFP-N1 (Clontech, BD Biosciences, Palo Alto, Calif.)
In the transfection complex, peptide component to DNA charge ratios (+/−) were used at 1.5:1, 3:1 and 7:1. The lipid
(§4) component (Lipofectin or Lipofectamine 2000) was maintained at a constant proportion, by weight, relative to DNA of 0.75:1. Prior to making transfection complexes, in method A the lipid component was diluted to a concentration of 15 μg per ml, the peptide was prepared at 0.1 mg/ml and the DNA (plasmid pEGFP-N1, BD Biosciences, Cowley, UK, prepared using EndoFree plasmid kit, Qiagen Ltd, Crawley, UK) was at 10 μg per ml. All dilutions were performed with OptiMEM reduced serum tissue culture medium (Life Technologies Ltd, Paisley, UK). In method B prior to making transfection complexes the lipid component was diluted to a concentration of 30 μg per ml, the peptide was prepared at 0.1 mg/ml and the DNA (plasmid pEGFP-N1, BD Biosciences, Cowley, UK, prepared using EndoFree plasmid kit, Qiagen Ltd, Crawley, UK) was at […]. All dilutions were performed in serum-free RPMI.
(§5) Transfection complexes were made by mixing the components in the order 1) lipid (50 μl) then 2) peptide (70 μl) and finally 3) DNA (50 μl), then diluting with OptiMEM or serum free RPMI, as appropriate, to a concentration relative to the DNA component of 2 μg DNA per […] (OptiMEM) or 500 μl (RPMI).
Immature day 6 dendritic cells, obtained as described in Example 1(v) above, were plated into a 48 well plate at 5×10^4 cells per well in complete media and allowed to settle for 3 hours at 37° C. 300 μl or 500 μl (as appropriate) of the transfection complex obtained as described above was added to each well. The transfection complex was applied to cells within 5 minutes of preparation. Transfection incubations were performed at 37° C. for 4 hours, after which the medium was replaced with complete medium with cytokines for 24 hours. Cells were harvested by scraping, spun down and resuspended in 300 μl PBS for FACS analysis to determine the percentage of cells positive for the reporter gene EGFP (Enhanced Green Fluorescent Protein). Each transfection was performed in triplicate wells.
(§6) For transfection of monocytes, peripheral blood monocytes were prepared using Lymphoprep centrifugation and CD14 bead selection as described in the method for preparation of monocyte derived dendritic cells in Example 1(v) above. These cells were then transfected as described as described for dendritic cells except that transfection of the monocytes (and also of day 3 or day 4 immature dendritic cells) was carried out in solution.

[5] = system: human peripheral blood monocytes; test: LID transfection of monocytes, EGFP by FACS and cell death; type: cell-based
Method: as §3, §4, §5, §6

[6] = lipofectin, lipid:DNA 0.75:1, peptide:DNA 7:1 (FIG. 5a)

Substance | Percentage of cells positive for bound phage (FITC) by FACS [1] | Phage harvested by cell lysis (pfu), human donor S [2] [pfu ×10^3] | Phage harvested by cell lysis (pfu), human donor one [2] [pfu ×10^3] | Phage harvested by cell lysis (pfu), human donor two [2] [pfu ×10^3] | Phage titre (pfu), mouse DCs (mouse dendritic cells) [pfu ×10^3] | Phage titre (pfu), plastic [3] [pfu ×10^3] | Transfection efficiency, % positive cells [4, 6] | Extent of phage clone binding in titrations [2] | Percentages of cells transfected (ranking) ([5]; FIG. 7a) | Transfection efficiency, % EGFP positive cells ([4]; day 3 dendritic cells (FIG. 6a)) [%] | Transfection efficiency, % positive cells ([4]; Lipofectamine 2000) [%] | Percentage of dendritic cells transfected [4] | Cell death ([5]; FIG. 7b, peptide F value with Lipofectin) [%]
PMLPSLS (Synthetic peptide binding to dendritic cells) | a higher percentage of cells positive for bound phage than the controls with no insert | 560 | 40 | 40 | 1520 | 80 | – | – | – | – | – | – | –
FQSQYQK (Synthetic peptide binding to dendritic cells) | binding to a higher percentage of cells than a phage clone bearing no insert | 3060 | 1000 | 360 | 3260 | 1680 | – | – | – | – | – | – | –
FPRAPHH (Synthetic peptide binding to dendritic cells) | a higher percentage of cells positive for bound phage than the controls with no insert | 19400 | 15920 | 3200 | 13980 | 1860 | 11% | bound in highest numbers in all titrations | highest percentages of cells transfected | – | – | – | –
STPPNTT (Synthetic peptide binding to dendritic cells) | a higher percentage of cells positive for bound phage than the controls with no insert | – | – | – | – | – | – | – | – | – | – | – | –
RRETAWA [peptide 6, reference compound] | – | – | – | – | – | – | 2% | – | – | 14 | 3 | – | –
QLLTGAS (Synthetic peptide binding to dendritic cells) | a higher percentage of cells positive for bound phage than the controls with no insert; also recorded: binds to marginally more cells than the others | 220 | 380 | 960 | 20 | 220 | – | – | – | – | – | – | –
SPALKTV (Synthetic peptide binding to dendritic cells) | all clones except for one | 6960 | 120 | – | 600 | 220 | – | – | – | – | – | – | –
SQKNPQM (Synthetic peptide binding to dendritic cells) | binding to a higher percentage of cells than a phage clone bearing no insert | – | – | – | – | – | – | – | – | – | – | – | –
TARDYRL (Synthetic peptide binding to dendritic cells) | a higher percentage of cells positive for bound phage than the controls with no insert | 940 | – | 180 | – | – | – | – | – | – | – | – | –
DWWHTSA (Synthetic peptide binding to dendritic cells) | binding to a higher percentage of cells than a phage clone bearing no insert; also recorded: bind to dendritic cells in highest amounts; also recorded: binding to dendritic cells in highest amounts | 8020 | 2980 | 1380 | 3240 | 1180 | – | – | – | – | – | less than 1% | 25
MASISMK (Synthetic peptide binding to dendritic cells) | a higher percentage of cells positive for bound phage than the controls with no insert | 9440 | 15220 | 7780 | 6380 | 2380 | about 7% | bound in highest numbers in all titrations | – | – | – | approximately half that value | –
